Results as given in patent US20120029177A1, “HETEROCYCLE-AMINO ACID DERIVATIVES FOR TARGETING CANCER TISSUE AND RADIOACTIVE OR NON-RADIOACTIVE LABELED COMPOUNDS THEREOF” (SNU R&DB FOUNDATION, priority 2009, published 2012).
Each block holds one compound with its values, some of them ahead of it.

Test system: SNU-C4 xenografted nude mice
Experiment: Biodistribution study in SNU-C4 xenografted nude mice after intravenous injection
Format: in vivo, mouse
Settings: for % ID/g Tumor: SNU-C4 tumor
Procedure: Human colon cancer cell line SNU-C4 was cultured in RPMI1640 media containing 10% fetal bovine serum and harvested using trypsin. The cells were washed using 10 mL PBS and centrifugation at 3,000 rpm. Each nude mouse was injected with 2×10^5 cells/0.1 mL on the right shoulder subcutaneously. On 13 days post-injection, each 10 μCi/0.1 mL of ^68Ga labeled agent was injected into the xenografted mice through the tail vein. The injected mice were sacrificed at 10 min, 30 min, 1 hr, and 2 hr, cancer, blood, muscle, heart, liver, spleen, stomach, intestine, and bone were obtained, weighed, and their radioactivities were counted. The results were expressed as percentages of injected dose per gram tissue (% ID/g).

[1] = 10 min after intravenous injection
[2] = 30 min after intravenous injection
[3] = 1 hr after intravenous injection
[4] = 2 hr after intravenous injection

- % ID/g Tumor [1]: 2.71 ± 0.51 % ID/g
- % ID/g Tumor [2]: 2.10 ± 0.23 % ID/g
- % ID/g Tumor [3]: 0.99 ± 0.10 % ID/g
- % ID/g Tumor [4]: 0.67 ± 0.12 % ID/g
- % ID/g Blood [1]: 7.82 ± 1.05 % ID/g
- % ID/g Blood [2]: 3.61 ± 0.74 % ID/g
- % ID/g Blood [3]: 1.12 ± 0.27 % ID/g
- % ID/g Blood [4]: 0.44 ± 0.06 % ID/g
- % ID/g Bone [1]: 2.56 ± 0.61 % ID/g
- % ID/g Bone [2]: 1.54 ± 0.53 % ID/g
- % ID/g Bone [3]: 0.72 ± 0.23 % ID/g
- % ID/g Bone [4]: 0.58 ± 0.19 % ID/g
- % ID/g Heart [1]: 2.33 ± 0.32 % ID/g
- % ID/g Heart [2]: 0.97 ± 0.20 % ID/g
- % ID/g Heart [3]: 0.37 ± 0.10 % ID/g
- % ID/g Heart [4]: 0.23 ± 0.03 % ID/g
- % ID/g Intestine [1]: 2.24 ± 0.36 % ID/g
- % ID/g Intestine [2]: 1.27 ± 0.25 % ID/g
- % ID/g Intestine [3]: 0.68 ± 0.11 % ID/g
- % ID/g Intestine [4]: 0.62 ± 0.07 % ID/g
- % ID/g Kidney [1]: 32.32 ± 21.63 % ID/g
- % ID/g Kidney [2]: 13.61 ± 3.98 % ID/g
- % ID/g Kidney [3]: 8.46 ± 2.11 % ID/g
- % ID/g Kidney [4]: 6.90 ± 1.10 % ID/g
- % ID/g Liver [1]: 2.91 ± 0.31 % ID/g
- % ID/g Liver [2]: 2.75 ± 0.49 % ID/g
- % ID/g Liver [3]: 2.31 ± 0.27 % ID/g
- % ID/g Liver [4]: 2.17 ± 0.20 % ID/g
- % ID/g Lung [1]: 6.96 ± 1.06 % ID/g
- % ID/g Lung [2]: 3.57 ± 0.80 % ID/g
- % ID/g Lung [3]: 1.32 ± 0.35 % ID/g
- % ID/g Lung [4]: 0.87 ± 0.25 % ID/g
- % ID/g Muscle [1]: 2.81 ± 0.82 % ID/g
- % ID/g Muscle [2]: 1.45 ± 0.42 % ID/g
- % ID/g Muscle [3]: 0.45 ± 0.17 % ID/g
- % ID/g Muscle [4]: 0.13 ± 0.07 % ID/g
- % ID/g Spleen [1]: 1.86 ± 0.24 % ID/g
- % ID/g Spleen [2]: 1.03 ± 0.22 % ID/g
- % ID/g Spleen [3]: 0.47 ± 0.10 % ID/g
- % ID/g Spleen [4]: 0.38 ± 0.08 % ID/g
- % ID/g Stomach [1]: 2.52 ± 0.46 % ID/g
- % ID/g Stomach [2]: 1.22 ± 0.32 % ID/g
- % ID/g Stomach [3]: 0.38 ± 0.05 % ID/g
- % ID/g Stomach [4]: 0.18 ± 0.03 % ID/g
Compound: O=C([O-])CN1CCNCCN(CC(=O)[O-])CCNCC1.[68Ga+3] [^68Ga-DO2A, reference compound]

- % ID/g Tumor [1]: 3.14 ± 0.73 % ID/g
- % ID/g Tumor [2]: 1.83 ± 0.20 % ID/g
- % ID/g Tumor [3]: 0.93 ± 0.33 % ID/g
- % ID/g Tumor [4]: 0.54 ± 0.04 % ID/g
- % ID/g Blood [1]: 6.96 ± 0.18 % ID/g
- % ID/g Blood [2]: 3.21 ± 0.58 % ID/g
- % ID/g Blood [3]: 1.03 ± 0.34 % ID/g
- % ID/g Blood [4]: 0.22 ± 0.02 % ID/g
- % ID/g Bone [1]: 1.64 ± 0.48 % ID/g
- % ID/g Bone [2]: 0.97 ± 0.28 % ID/g
- % ID/g Bone [3]: 0.38 ± 0.12 % ID/g
- % ID/g Bone [4]: 0.28 ± 0.33 % ID/g
- % ID/g Heart [1]: 1.75 ± 0.12 % ID/g
- % ID/g Heart [2]: 0.77 ± 0.11 % ID/g
- % ID/g Heart [3]: 0.32 ± 0.09 % ID/g
- % ID/g Heart [4]: 0.06 ± 0.09 % ID/g
- % ID/g Intestine [1]: 1.87 ± 0.06 % ID/g
- % ID/g Intestine [2]: 1.00 ± 0.14 % ID/g
- % ID/g Intestine [3]: 0.64 ± 0.17 % ID/g
- % ID/g Intestine [4]: 0.42 ± 0.08 % ID/g
- % ID/g Kidney [1]: 11.96 ± 0.51 % ID/g
- % ID/g Kidney [2]: 7.85 ± 1.00 % ID/g
- % ID/g Kidney [3]: 6.52 ± 3.13 % ID/g
- % ID/g Kidney [4]: 7.50 ± 3.82 % ID/g
- % ID/g Liver [1]: 1.99 ± 0.03 % ID/g
- % ID/g Liver [2]: 1.35 ± 0.13 % ID/g
- % ID/g Liver [3]: 1.02 ± 0.16 % ID/g
- % ID/g Liver [4]: 0.93 ± 0.05 % ID/g
- % ID/g Lung [1]: 5.81 ± 0.54 % ID/g
- % ID/g Lung [2]: 2.82 ± 0.59 % ID/g
- % ID/g Lung [3]: 1.26 ± 0.28 % ID/g
- % ID/g Lung [4]: 0.61 ± 0.23 % ID/g
- % ID/g Muscle [1]: 1.69 ± 0.39 % ID/g
- % ID/g Muscle [2]: 0.92 ± 0.27 % ID/g
- % ID/g Muscle [3]: 0.32 ± 0.17 % ID/g
- % ID/g Muscle [4]: 0.10 ± 0.03 % ID/g
- % ID/g Spleen [1]: 1.63 ± 0.08 % ID/g
- % ID/g Spleen [2]: 0.95 ± 0.14 % ID/g
- % ID/g Spleen [3]: 0.64 ± 0.09 % ID/g
- % ID/g Spleen [4]: 0.53 ± 0.11 % ID/g
- % ID/g Stomach [1]: 2.37 ± 0.56 % ID/g
- % ID/g Stomach [2]: 1.00 ± 0.24 % ID/g
- % ID/g Stomach [3]: 0.43 ± 0.20 % ID/g
- % ID/g Stomach [4]: 0.16 ± 0.05 % ID/g
Compound: O=C([O-])CN1CCNCCN(CC(=O)[O-])CCN(CC(=O)[O-])CC1.[68Ga+3] [^68Ga-DO3A, reference compound]

- % ID/g Tumor [1]: 2.55 ± 0.81 % ID/g
- % ID/g Tumor [2]: 1.26 ± 0.23 % ID/g
- % ID/g Tumor [3]: 0.60 ± 0.06 % ID/g
- % ID/g Tumor [4]: 0.41 ± 0.09 % ID/g
- % ID/g Blood [1]: 7.52 ± 0.77 % ID/g
- % ID/g Blood [2]: 2.76 ± 0.41 % ID/g
- % ID/g Blood [3]: 0.90 ± 0.19 % ID/g
- % ID/g Blood [4]: 0.21 ± 0.01 % ID/g
- % ID/g Bone [1]: 1.86 ± 0.22 % ID/g
- % ID/g Bone [2]: 0.85 ± 0.11 % ID/g
- % ID/g Bone [3]: 0.33 ± 0.10 % ID/g
- % ID/g Bone [4]: 0.17 ± 0.17 % ID/g
- % ID/g Heart [1]: 2.04 ± 0.19 % ID/g
- % ID/g Heart [2]: 0.68 ± 0.09 % ID/g
- % ID/g Heart [3]: 0.23 ± 0.08 % ID/g
- % ID/g Heart [4]: 0.08 ± 0.05 % ID/g
- % ID/g Intestine [1]: 1.62 ± 0.11 % ID/g
- % ID/g Intestine [2]: 0.68 ± 0.08 % ID/g
- % ID/g Intestine [3]: 0.36 ± 0.05 % ID/g
- % ID/g Intestine [4]: 0.26 ± 0.08 % ID/g
- % ID/g Kidney [1]: 16.19 ± 1.83 % ID/g
- % ID/g Kidney [2]: 6.33 ± 0.95 % ID/g
- % ID/g Kidney [3]: 4.13 ± 1.13 % ID/g
- % ID/g Kidney [4]: 2.92 ± 0.97 % ID/g
- % ID/g Liver [1]: 1.30 ± 0.15 % ID/g
- % ID/g Liver [2]: 0.60 ± 0.08 % ID/g
- % ID/g Liver [3]: 0.32 ± 0.04 % ID/g
- % ID/g Liver [4]: 0.21 ± 0.03 % ID/g
- % ID/g Muscle [1]: 2.08 ± 0.11 % ID/g
- % ID/g Muscle [2]: 0.70 ± 0.12 % ID/g
- % ID/g Muscle [3]: 0.26 ± 0.12 % ID/g
- % ID/g Muscle [4]: 0.10 ± 0.04 % ID/g
- % ID/g Spleen [1]: 1.41 ± 0.08 % ID/g
- % ID/g Spleen [2]: 0.56 ± 0.07 % ID/g
- % ID/g Spleen [3]: 0.27 ± 0.06 % ID/g
- % ID/g Spleen [4]: 0.18 ± 0.06 % ID/g
- % ID/g Stomach [1]: 1.86 ± 0.39 % ID/g
- % ID/g Stomach [2]: 0.72 ± 0.15 % ID/g
- % ID/g Stomach [3]: 0.26 ± 0.06 % ID/g
- % ID/g Stomach [4]: 0.10 ± 0.03 % ID/g
Compound: O=C([O-])CN1CCN(CC(=O)[O-])CCN(CC(=O)O)CCN(CC(=O)[O-])CC1.[68Ga+3] [^68Ga-DOTA, reference compound]
